Reference: PMC11387443, “Determination of bisphosphonate properties in terms of bioavailability, bone affinity, and cytotoxicity” (Pharmacological Reports, 2024)
Entries after “also recorded” stand apart in the source; their conditions may differ.

System: not listed separately
Experiment: Sorption of bisphosphonates on hydroxyapatite in SBF
Type: physicochemical
Conditions: 0.7 mM, 30 mg HA, 10 mL SBF
Procedure: The first step was to investigate the effect of concentration on the RSD sorption on HA. The sorption capacity was examined for 4 concentrations (0.2, 0.5, 0.7 and 1 mM). 30 mg (+ /− 0.1 mg) of HA was weighed into polypropylene tubes. Subsequently, 10 mL of Simulated Body Fluid (SBF) (Table 2) containing BPs was poured into the tubes and placed in a shaker for 1 h, 2 h, and 48 h. Sorption of BP compounds on HA was measured using a UV–VIS spectrophotometer after 5 min of centrifugation (speed 4000 rpm). The compound concentrations were measured by Multiskan152 Sky Microplate Spectrophotometer (Thermo Fisher Scientific, Waltham, MA, USA). Next, for one concentration (0.7 mM), sorption studies of all BPs were conducted in the same manner as indicated above for RSD. The measurements were conducted in the range of 220–400 nm. The quantitative assessment was performed based on the calibration curve method at the absorbance maximum for each BP (absorption properties of the tested compounds are summarized in Table 3).

Structure (SMILES) | sorption on HA
O=P(O)(O)C(O)(Cc1cccnc1)P(=O)(O)O [RSD, Risedronate] | approximately 50%

Same assay, conditions: 0.7 mM, 30 mg HA, 10 mL SBF, 1, 2 and 48 h

Structure (SMILES) | affinity for HA (sorption), comparison in words
O=P(O)(O)C(Nc1cccc(O)n1)P(=O)(O)O [BP11, (6-hydroksy-2-pyridinyl)amino-methylene-1,1-bisphosphonic acid] | highest sorption
O=P(O)(O)C(Nc1ccc(Br)cn1)P(=O)(O)O [BP7, (5-bromo-2-pyridinyl)amino-methylene-1,1-bisphosphonic acid] | slightly higher affinity for HA than RSD
Cc1cccnc1NC(P(=O)(O)O)P(=O)(O)O [BP2, (3-methyl-2-pyridinyl)aminomethylene-1,1-bisphosphonic acid] | lower affinity
O=P(O)(O)C(Nc1nc2ccccc2s1)P(=O)(O)O [BP12, N-(1,3-benzothiazol-2-yl)amino-methylene-1,1-bisphosphonic acid] | lower affinity for HA compared to RSD and BP1
Cc1cc(C)nc(NC(P(=O)(O)O)P(=O)(O)O)c1 [BP5, (4,6-dimethyl-2-pyridinyl)amino-methylene-1,1-bisphosphonic acid] | lower affinity
O=P(O)(O)C(Nc1ccc(I)cn1)P(=O)(O)O [BP6, (5-iodo-2-pyridinyl)amino-methylene-1,1-bisphosphonic acid] | slightly higher affinity for HA than RSD
O=P(O)(O)C(Nc1ccccn1)P(=O)(O)O [BP1, 2-pyridinylaminomethylene-1,1-bisphosphonic acid] | slightly higher affinity for HA than RSD
O=P(O)(O)C(Nc1ccc(Cl)cn1)P(=O)(O)O [BP8, (5-chloro-2-pyridinyl)amino-methylene-1,1-bisphosphonic acid] | stronger affinity for HA than RSD

System: not given
Experiment: not given
Set-up: method as in PMID 26542347
Conditions: in vitro artificial intestinal membrane; cited from earlier work

Structure (SMILES) | permeability Pe
O=P(O)(O)C(O)(Cn1ccnc1)P(=O)(O)O [Zoledronate, zoledronic acid] | Not detected

System: Lactobacillus paracasei PCM 3039
Experiment: Growth curve of L. paracasei (OD600)
Type: cell-based
Conditions: 0.2 mg mL^−1 BP, 24 h
Procedure: Lactobacillus paracasei PCM 3039 used in the experiments was purchased from the Polish Collection of Microorganisms (Wroclaw, Poland). The liquid cultures were composed of the minimal medium (10% solution of MRS Broth in Dulbecco’s Phosphate Buffered Saline (DPBS)), the inoculum, and a BP stock solution in water (initial concentration of BPs in each culture was 0.2 mg mL^−1). The bacterial inoculum was prepared from the broth cultures incubated overnight at 37 °C and washed twice with a sterile medium. The initial cell concentration in each culture was adjusted to 1–10^8 cfu mL^−1. The reference cultures without the addition of BPs (denoted as Ctrl) and the abiotic control samples with the addition of pure minimal medium instead of bacterial inoculum were carried out. All samples were incubated at 36 °C for 24 h with shaking (150 rpm). The growth of cells treated with BPs as well as control cells was monitored by measuring the optical density at the wavelength of 600 nm (OD600) as described by. The growth curve measurements were performed with a microplate reader Multiskan 152 Sky (Thermo Fisher Scientific, Waltham, MA, USA). 200 μL of the prepared bacterial cultures were transferred to the 96-well clear bottom sterile microplates wells. The plates were maintained at 37 °C with pulse shaking. The OD600 of each well was read every 10 min for 24 h.

Structure (SMILES) | growth of L. paracasei (OD600 growth curve), in words
O=P(O)(O)C(O)(Cc1cccnc1)P(=O)(O)O [RSD, Risedronate] | initial fast cell growth was followed by a rapid decrease in cell density

System: Caco-2 cell monolayer
Experiment: not given
Set-up: method as in PMID 26542347
Conditions: cited from earlier work

Structure (SMILES) | apparent permeability coefficient Papp
O=P(O)(O)C(O)(Cn1ccnc1)P(=O)(O)O [Zoledronate, zoledronic acid] | 2.72 ± 0.868 (× 10^−6) cm s^−1

System: Lactobacillus paracasei PCM 3039
Experiment: Bacterial cell wall hydrophobicity (Congo Red binding)
Type: cell-based
Conditions: 0.2 mg mL^−1 BP, 24 h; Ctrl 39.7 ± 8.0%
Procedure: (§1) Lactobacillus paracasei PCM 3039 used in the experiments was purchased from the Polish Collection of Microorganisms (Wroclaw, Poland). The liquid cultures were composed of the minimal medium (10% solution of MRS Broth in Dulbecco’s Phosphate Buffered Saline (DPBS)), the inoculum, and a BP stock solution in water (initial concentration of BPs in each culture was 0.2 mg mL^−1). The bacterial inoculum was prepared from the broth cultures incubated overnight at 37 °C and washed twice with a sterile medium. The initial cell concentration in each culture was adjusted to 1–10^8 cfu mL^−1. The reference cultures without the addition of BPs (denoted as Ctrl) and the abiotic control samples with the addition of pure minimal medium instead of bacterial inoculum were carried out. All samples were incubated at 36 °C for 24 h with shaking (150 rpm). The effect of BPs on the properties of bacterial cells was also evaluated. The experiments performed include (i) modifications of the bacterial cell membrane permeability—the measurements were based on the Crystal Violet uptake by the cells, (ii) modifications of the bacterial cell wall hydrophobicity, based on the procedure described previously. Relative metabolic activity of cells treated with the compounds in question measured with the colorimetric test AlamarBlue® Cell Viability Assay.

Structure (SMILES) | Congo Red Binding (cell wall hydrophobicity) [%]
O=P(O)(O)C(Nc1cccc(O)n1)P(=O)(O)O [BP11, (6-hydroksy-2-pyridinyl)amino-methylene-1,1-bisphosphonic acid] | 35.2 ± 6.1
O=P(O)(O)C(Nc1ccc(Br)cn1)P(=O)(O)O [BP7, (5-bromo-2-pyridinyl)amino-methylene-1,1-bisphosphonic acid] | 45.0 ± 5.8
O=P(O)(O)C(Nc1cccnc1Cl)P(=O)(O)O [BP10] | 86.4 ± 1.7
O=P(O)(O)C(Nc1cccc(Cl)n1)P(=O)(O)O [BP9, (6-chloro-2-pyridinyl)amino-methylene-1,1-bisphosphonic acid] | 85.0 ± 2.4
O=P(O)(O)C(Nc1ccc(Cl)cn1)P(=O)(O)O [BP8, (5-chloro-2-pyridinyl)amino-methylene-1,1-bisphosphonic acid] | 82.1 ± 1.7
Cc1ccc(NC(P(=O)(O)O)P(=O)(O)O)nc1 [BP4, (5-methyl-2-pyridinyl)aminomethylene-1,1-bisphosphonic acid] | 89.3 ± 3.5

System: Lactobacillus paracasei PCM 3039
Experiment: Bacterial cell membrane permeability (Crystal Violet uptake)
Type: cell-based
Conditions: 0.2 mg mL^−1 BP, 24 h
Procedure: as §1

Structure (SMILES) | change in membrane permeability in comparison with RSD
O=P(O)(O)C(Nc1cccc(O)n1)P(=O)(O)O [BP11, (6-hydroksy-2-pyridinyl)amino-methylene-1,1-bisphosphonic acid] | significant decrease
O=P(O)(O)C(Nc1ccc(Br)cn1)P(=O)(O)O [BP7, (5-bromo-2-pyridinyl)amino-methylene-1,1-bisphosphonic acid] | significant decrease
Cc1ccnc(NC(P(=O)(O)O)P(=O)(O)O)c1 [BP3, (4-methyl-2-pyridinyl)aminomethylene-1,1-bisphosphonic acid] | significant decrease
Cc1cc(C)nc(NC(P(=O)(O)O)P(=O)(O)O)c1 [BP5, (4,6-dimethyl-2-pyridinyl)amino-methylene-1,1-bisphosphonic acid] | significant decrease
O=P(O)(O)C(Nc1ccccn1)P(=O)(O)O [BP1, 2-pyridinylaminomethylene-1,1-bisphosphonic acid] | significant decrease

Same assay, conditions: 0.2 mg mL^−1 BP, 24 h; Ctrl 33.4 ± 8.0%

Structure (SMILES) | Crystal Violet uptake (cell membrane permeability) [%]
O=P(O)(O)C(Nc1cccc(O)n1)P(=O)(O)O [BP11, (6-hydroksy-2-pyridinyl)amino-methylene-1,1-bisphosphonic acid] | 30.9 ± 6.4
O=P(O)(O)C(Nc1ccc(Br)cn1)P(=O)(O)O [BP7, (5-bromo-2-pyridinyl)amino-methylene-1,1-bisphosphonic acid] | 30.6 ± 6.0
O=P(O)(O)C(Nc1cccnc1Cl)P(=O)(O)O [BP10] | 60.6 ± 8.7
O=P(O)(O)C(Nc1cccc(Cl)n1)P(=O)(O)O [BP9, (6-chloro-2-pyridinyl)amino-methylene-1,1-bisphosphonic acid] | 61.9 ± 5.7
Cc1ccc(NC(P(=O)(O)O)P(=O)(O)O)nc1 [BP4, (5-methyl-2-pyridinyl)aminomethylene-1,1-bisphosphonic acid] | 62.7 ± 8.4

System: not given
Experiment: not given
Set-up: method as in PMID 34277124
Conditions: cited from earlier work

Structure (SMILES) | sorption and desorption on polymer-ceramic materials
Cc1cccnc1NC(P(=O)(O)O)P(=O)(O)O [BP2, (3-methyl-2-pyridinyl)aminomethylene-1,1-bisphosphonic acid] | high sorption levels on polymer-ceramic materials, followed by extensive desorption
O=P(O)(O)C(Nc1nc2ccccc2s1)P(=O)(O)O [BP12, N-(1,3-benzothiazol-2-yl)amino-methylene-1,1-bisphosphonic acid] | high sorption levels on polymer-ceramic materials, followed by extensive desorption
O=P(O)(O)C(Nc1ccccn1)P(=O)(O)O [BP1, 2-pyridinylaminomethylene-1,1-bisphosphonic acid] | high sorption levels on polymer-ceramic materials, followed by extensive desorption

System: not listed separately
Experiment: Parallel artificial membrane permeability assay (PAMPA)
Type: in vitro ADME
Conditions: 175 μM in PBS pH 7.4, 5 h
Procedure: A parallel artificial membrane permeability assay (PAMPA) (Corning® Gentest™ Pre-coated PAMPA Plate System Gentest, USA) was prepared according to the recommended protocol. 96-well PAMPA plate was heated to room temperature for at least 30 min. Compound solutions were prepared in buffer (175 μM in PBS, pH 7.4). 300 μL of the BP solution was added to each donor plate well, and 200 μL of buffer (PBS, pH 7.4) was added to each acceptor plate. The filter plate (acceptor plate) was then placed on the receiver plate (donor plane) and the plate assembly was incubated at room temperature for 5 h. The compound amounts were measured by Multiskan152 SkyMicroplate Spectrophotometer (Thermo Fisher Scientific, Waltham, USA). The permeability of the BPs was calculated using the following formula (Eq. 1)1 Pe=-In[1-CA(t)/Cequilibrium]/A∗(1/VD+1/VA)∗t where Pe is the permeability (cm s^−1), Cequilibrium is [CD(t) × VD + CA(t) × VA]/(VD + VA), CD(t) indicates the compound concentration in donor well at time t (mM), CA(t) indicates the compound concentration in acceptor well at time t (mM), VD is the donor well volume (0.3 mL), VA is the acceptor well volume (0.2 mL), t is the incubation time (18000 s), and A is the effective filter area (0.3 cm^2).

Structure (SMILES) | drug concentration in the acceptor plate relative to RSD
O=P(O)(O)C(Nc1ccc(Br)cn1)P(=O)(O)O [BP7, (5-bromo-2-pyridinyl)amino-methylene-1,1-bisphosphonic acid] | over twice as high as RSD
Cc1cccnc1NC(P(=O)(O)O)P(=O)(O)O [BP2, (3-methyl-2-pyridinyl)aminomethylene-1,1-bisphosphonic acid] | over twice as high as RSD
O=P(O)(O)C(Nc1ccc(Cl)cn1)P(=O)(O)O [BP8, (5-chloro-2-pyridinyl)amino-methylene-1,1-bisphosphonic acid] | over twice as high as RSD
Cc1ccc(NC(P(=O)(O)O)P(=O)(O)O)nc1 [BP4, (5-methyl-2-pyridinyl)aminomethylene-1,1-bisphosphonic acid] | over twice as high as RSD

Same assay, conditions: 175 μM in PBS pH 7.4, 5 h, room temperature

Structure (SMILES) | PAMPA permeability, comparison in words
O=P(O)(O)C(Nc1cccc(O)n1)P(=O)(O)O [BP11, (6-hydroksy-2-pyridinyl)amino-methylene-1,1-bisphosphonic acid] | highest permeability among all analyzed BPs
Cc1cccnc1NC(P(=O)(O)O)P(=O)(O)O [BP2, (3-methyl-2-pyridinyl)aminomethylene-1,1-bisphosphonic acid] | higher permeability than the other two compounds
O=P(O)(O)C(Nc1ccc(Cl)cn1)P(=O)(O)O [BP8, (5-chloro-2-pyridinyl)amino-methylene-1,1-bisphosphonic acid] | higher than twice as much as BP9 permeability; also recorded: highest permeability among all analyzed BPs
Cc1ccc(NC(P(=O)(O)O)P(=O)(O)O)nc1 [BP4, (5-methyl-2-pyridinyl)aminomethylene-1,1-bisphosphonic acid] | higher permeability than the other two compounds

System: not given
Experiment: not given
Set-up: method as in PMID 32387834
Conditions: oral; cited from earlier work

Structure (SMILES) | bioavailability [%]
O=P(O)(O)C(O)(Cc1cccnc1)P(=O)(O)O [RSD, Risedronate] | 0.62

System: Lactobacillus paracasei PCM 3039
Experiment: Relative metabolic activity (AlamarBlue Cell Viability Assay)
Type: cell-based
Conditions: 0.2 mg mL^−1 BP, relative to control group set at 100%
Procedure: as §1

Structure (SMILES) | AlamarBlue Reduction (relative metabolic activity)
O=P(O)(O)C(Nc1cccc(O)n1)P(=O)(O)O [BP11, (6-hydroksy-2-pyridinyl)amino-methylene-1,1-bisphosphonic acid] | 60.4 ± 3.4%
Cc1cccnc1NC(P(=O)(O)O)P(=O)(O)O [BP2, (3-methyl-2-pyridinyl)aminomethylene-1,1-bisphosphonic acid] | approximately 154.0%
O=P(O)(O)C(Nc1cccc(Cl)n1)P(=O)(O)O [BP9, (6-chloro-2-pyridinyl)amino-methylene-1,1-bisphosphonic acid] | 35.9 ± 16.7%
O=P(O)(O)C(Nc1ccccn1)P(=O)(O)O [BP1, 2-pyridinylaminomethylene-1,1-bisphosphonic acid] | approximately 154.0%
Cc1ccc(NC(P(=O)(O)O)P(=O)(O)O)nc1 [BP4, (5-methyl-2-pyridinyl)aminomethylene-1,1-bisphosphonic acid] | approximately 154.0%

System: not given
Experiment: not given
Set-up: method as in PMID 18056045
Conditions: cited from earlier work
Remark: another data set of the same source

Structure (SMILES) | urinary excretion 24 h after the first dose [%]
O=P(O)(O)C(Cl)(Cl)P(=O)(O)O [clodronate] | 73
O=P(O)(O)C(O)(Cc1cccnc1)P(=O)(O)O [RSD, Risedronate] | 65
O=P(O)(O)C(O)(Cn1ccnc1)P(=O)(O)O [Zoledronate, zoledronic acid] | 38
